Reference: patent publication US7202239B2, “Cyclohexylphenyl carboxamides tocolytic oxytocin receptor antagonists” (Wyeth, priority 2001, dated 2007)

Target: T1, human oxytocin receptor (Homo sapiens, UniProt P30559)
T1 sequence (P30559 1-389): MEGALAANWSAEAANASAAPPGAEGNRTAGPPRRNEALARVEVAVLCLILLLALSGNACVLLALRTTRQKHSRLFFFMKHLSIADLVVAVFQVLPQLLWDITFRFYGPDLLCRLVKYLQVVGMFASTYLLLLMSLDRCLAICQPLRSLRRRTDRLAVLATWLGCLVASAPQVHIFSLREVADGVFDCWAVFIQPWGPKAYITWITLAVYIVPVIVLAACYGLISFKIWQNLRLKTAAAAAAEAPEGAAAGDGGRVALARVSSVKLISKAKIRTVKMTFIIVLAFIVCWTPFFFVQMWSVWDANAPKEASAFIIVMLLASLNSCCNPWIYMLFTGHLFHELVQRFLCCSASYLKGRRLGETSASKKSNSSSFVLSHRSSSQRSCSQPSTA
Assay: Oxytocin binding in CHO cell membranes expressing human oxytocin receptors
Details: [3H]oxytocin; for IC50: value in parentheses, read-out: OT (IC50); for OT % inhibition at 100 nM / inhibition at 0.1 µM: 100 nM; for inhibition at 0.1 µM: read-out: OT % inhibition at 100 nM
Text: Oxytocin Binding in Chinese Hamster Ovary Cell Membranes Expressing Human Oxytocin Receptors
Chinese Hamster Ovary (CHO) cells stably transfected with the human oxytocin receptor (cf. Tanizawa et al., U.S. Pat. No. 5,466,584 (1995) to Rohto Pharmaceutical Co. Ltd., Osaka, Japan) were obtained from M. Thibonnier, Case Western Reserve University School of Medicine, Cleveland, Ohio. A. Passaging and Amplification of Cells: CHO cells transfected with the human oxytocin receptors obtained from M. Thibonnier (pcDNA3.1 vector) are allowed to grow to confluency (approx. >90%) in T-150 flasks under sterile conditions, in a cell culture medium of F-12 Nutrient Mixture (HAM) with L-glutamine (Gibco Cat. # 11765-054) containing 15 mM HEPES (Gibco Cat. # 15630-080), 1% antibiotic/antimycotic (add 5 mL 100×, Gibco Cat. # 15240-062 per 500 mL F-12), 400 μg/mL of Geneticin (add 4 mL of 50 mg/mL per 500 mL F-12) and 10% Fetal Bovine Serum (Qualified, heat inactivated, Gibco Cat. # 16140-063). The medium is removed by aspiration and the cells are washed with 10 mL of Hank's Balanced Salt solution (Gibco Cat. # 14175-095). The salt solution is removed by aspiration and the cells trypsinized with 5 mL of trypsin-EDTA (0.05% trypsin, 0.53 mM EDTA-4Na, Gibco Cat. # 25300-070) for 1 min The trypsin is removed by aspiration and the cells dislodged by tapping. Cell Culture medium (e.g. 30 mL for 1:30 split) is immediately added and mixed well to inactivate trypsin. 1 mL of detached cells is added to new culture flasks containing fresh Cell Culture medium (e.g. into 25 mL per T-150 flask), and mixed gently. The cells are incubated at 37° C. in 5% CO2. The medium is changed at 3 to 4 days interval (or as appropriate). The cells grow to confluency (approx. >75%–95%) within 7–8 days. All steps are done under sterile conditions. B. Membrane Preparation: The cells are washed twice gently with Hank's Balanced Salt solution (eg, use 10 mL per T-150 flask). The excess solution is removed and the cells bathed for 15–30 min. in an enzyme-free Cell Dissociation Buffer (eg, use 8 mL Hank's Based, Gibco Cat. # 13150-016 per T-150 flask) until cells are loosened. The contents are transferred to centrifuge tubes (50 mL size) kept in ice bath. All subsequent steps are done at 4° C. The tubes are centrifuged at 300×g for 15 min (1380 rpm on SORVAL, Model RT6000D, using rotor for 50 mL tubes). The supernatant is discarded and the cells suspended in homogenizing buffer (10 mM Tris-HCl containing 0.25 M sucrose and 1 mM EDTA, pH 7.4) ensuring that the volume of the buffer is about ten times the volume of the cell pellet. The cells are pooled into a centrifuge tube (50 mL) and homogenized with a Polytron at setting 6 for 10 sec. The homogenate is transferred into a Potter-Elvjehm homogenizer and homogenized with 3 strokes. The homogenate is centrifuged at 1500×g for 10 min at 4° C. (3100 rpm using SORVAL, model RT6000D, using rotor for 50 mL tubes). The pellet is discarded. The supernatant is centrifuged at 100,000×g for 60 min. at 4° C. (Beckman L8-80M ultracentrifuge; spin at 37,500 rpm with rotor type 70 Ti for 50 mL tubes; 38,000 rpm with type 80Ti for 15 mL tubes; or 35,800 rpm with rotor type 45Ti). The supernantant is discarded and the pellet suspended in 3 to 4 mL of Tris buffer (50 mM TRIS-HCl, pH 7.4). The protein content is estimated by the Bradford or Lowry method. The volume of the membrane suspension is adjusted with the membrane buffer (50 mM Tris-HCl containing 0.1% BSA and 0.1 mM PMSF) to give 3.0 mg/mL (or as appropriate) of protein. The membranes are aliquoted and stored at −70° C. C. Radioligand Binding Assay: In wells of a 96-well format microtiter plate, is added 90, 110 or 130 μL (to make up a final volume of 200 μL) of assay buffer containing 50 mM of Tris-HCl (pH 7.4), […], 1 mg % aprotinin, 1 mg % leupeptin, 2 mg % 1,10-phenanthroline, 10 mg % trypsin inhibitor, and 0.1 mM PMSF. […]

Row | IC50 [nM] | OT % inhibition at 100 nM [%] | inhibition at 0.1 µM [%] | Structure (SMILES)
1 | 105 | – | – | CC(=O)c1ccc2n1Cc1ccccc1N(C(=O)c1ccc(C3CCCCC3)cc1)C2 [Example 6, 1-[10-(4-Cyclohexyl-benzoyl)-10,11-dihydro-5H-pyrrolo[2,1-c][1,4]benzodiazepin-3-yl]-ethanone]
2 | 127 | – | – | NNC(=O)c1ccc2n1Cc1ccccc1N(C(=O)c1ccc(C3CCCCC3)cc1)C2 [Example 8, 10-(4-Cyclohexy-benzoyl)-10,11-dihydro-5H-pyrrolo[2,1-c][1,4]benzodiazepine-3-carboxylic acid hydrazide]
3 | 52.1 | – | – | CC(=O)NNC(=O)c1ccc2n1Cc1ccccc1N(C(=O)c1ccc(C3CCCCC3)cc1)C2 [Example 11, N′-Acetyl-10-(4-cyclohexyl-benzoyl)-10,11-dihydro-5H-pyrrolo[2,1-c][1,4]benzodiazepine-3-carbonyl-hydrazide]
4 | – | 47 | – | Cc1ccccc1C(=O)NNC(=O)c1ccc2n1Cc1ccccc1N(C(=O)c1ccc(C3CCCCC3)cc1)C2 [Example 12, 10-(4-Cyclohexyl-benzoyl)-N′-(2-methylbenzoyl)-10,11-dihydro-5H-pyrrolo[2,1-c][1,4]benzodiazepine-3-carbonyl-hydrazide]
5 | – | 73 | – | O=C(NNC(=O)C1CC1)c1ccc2n1Cc1ccccc1N(C(=O)c1ccc(C3CCCCC3)cc1)C2 [Example 13, 10-(4-Cyclohexyl-benzoyl)-N′-(cyclopropylcarbonyl)-10,11-dihydro-5H-pyrrolo[2,1-c][1,4]benzodiazepine-3-carbonyl-hydrazide]
6 | – | 53 | – | Cc1cccc(C(=O)NNC(=O)c2ccc3n2Cc2ccccc2N(C(=O)c2ccc(C4CCCCC4)cc2)C3)c1 [Example 14, 10-(4-Cyclohexyl-benzoyl)-N′-(3-methyl-benzoyl)-10,11-dihydro-5H-pyrrolo[2,1-c][1,4]benzodiazepine-3-carbonyl-hydrazide]
7 | – | – | 16 | O=C(NNC(=O)c1ccc2n1Cc1ccccc1N(C(=O)c1ccc(C3CCCCC3)cc1)C2)Nc1ccccc1 [Example 15, 2-{[10-(4-Cyclohexyl-benzoyl)-10,11-dihydro-5H-pyrrolo[2,1-c][1,4]benzodiazepin-3-yl]carbonyl}-N-phenyl-1-hydrazinecarboxamide]
8 | – | – | 68 | CN(N)C(=O)c1ccc2n1Cc1ccccc1N(C(=O)c1ccc(C3CCCCC3)cc1)C2 [Example 21, 10-(4-Cyclohexyl-benzoyl)-N-methyl-10,11-dihydro-5H-pyrrolo[2,1-c][1,4]benzodiazepine-3-carboxylic acid hydrazide]
9 | – | 34 | – | O=C(O)c1ccc2n1Cc1ccccc1N(C(=O)c1ccc(C3CCCCC3)cc1)C2 [Example 22, 10-(4-Cyclohexyl-benzoyl)-10,11-dihydro-5H-pyrrolo[2,1 c][1,4]benzodiazepine-3-carboxylic acid]
10 | 41.8 | – | – | O=C(c1ccc2n1Cc1ccccc1N(C(=O)c1ccc(C3CCCCC3)cc1)C2)N1CCN(c2ncccn2)CC1 [Example 23]
11 | 13.2 | – | – | O=C(c1ccc2n1Cc1ccccc1N(C(=O)c1ccc(C3CCCCC3)cc1)C2)N1CCC(N2CCCC2)CC1 [Example 25, [10-(4-Cyclohexyl-benzoyl)-10,11-dihydro-5H-pyrrolo[2,1-c][1,4]benzodiazepin-3-yl][4-(1-pyrrolidinyl)-1-piperidinyl]methanone]
12 | 19.7 | – | – | O=C(c1ccc2n1Cc1ccccc1N(C(=O)c1ccc(C3CCCCC3)cc1)C2)N1CCC(N2CCCCC2)CC1 [Example 26, [1,4′]Bipiperidinyl-1′-yl-[10-(4-cyclohexyl-benzoyl)-10,11-dihydro-5H-pyrrolo[2,1-c][1,4]benzodiazepin-3-yl]-methanone]
13 | 111 | – | – | O=C(c1ccc2n1Cc1ccccc1N(C(=O)c1ccc(C3CCCCC3)cc1)C2)N1CCN(c2ccccn2)CC1 [Example 28, [10-(4-Cyclohexyl-benzoyl)-10,11-dihydro-5H-pyrrolo[2,1-c][1,4]benzodiazepine 3-yl][4-(2-pyridinyl)-1-piperazinyl]-methanone]
14 | – | – | 42 | COc1ccc(NC(=O)c2ccc3n2Cc2ccccc2N(C(=O)c2ccc(C4CCCCC4)cc2)C3)cc1 [Example 29, 10-(4-Cyclohexyl-benzoyl)-10,11-dihydro-5H-pyrrolo[2,1-c][1,4]benzodiazepine-3-carboxylic acid (4-methoxy-phenyl)-amide]
15 | – | 89 | – | O=C(C(=O)N1CCC(N2CCCCC2)CC1)c1ccc2n1Cc1ccccc1N(C(=O)c1ccc(C3CCCCC3)cc1)C2 [Example 31, 1-[1.4′]Bipiperidinyl-1′-yl-2-[10-(4-cyclohexyl-benzoyl)-10,11-dihydro-5H-pyrrolo[2,1-c][1,4]benzodiazepin-3-yl]-ethane-1,2-dione]
16 | – | 87 | – | CN1CCN(C(=O)C(=O)c2ccc3n2Cc2ccccc2N(C(=O)c2ccc(C4CCCCC4)cc2)C3)CC1 [Example 32, 1-[10-(4-Cyclohexyl-benzoyl)-10,11-dihydro-5H-pyrrolo[2,1-c][1,4]benzodiazepin-3-yl]-2-(4-methyl-1-piperazin-1-yl)-1,2-ethane-1,2-dione]
17 | – | – | 66 | CN(C)CCCNC(=O)c1ccc2n1Cc1ccccc1N(C(=O)c1ccc(C3CCCCC3)cc1)C2 [Example 33, 10-(4-Cyclohexyl-benzoyl)-N-[3-(dimethylamino)propyl]-10,11-dihydro-5H-pyrrolo[2,1-c][1,4]benzodiazepine-3-carboxamide]
18 | – | – | -5 | CN(C)CCN(C)C(=O)c1ccc2n1Cc1ccccc1N(C(=O)c1ccc(C3CCCCC3)cc1)C2 [Example 34, 10-(4-Cyclohexyl-benzoyl)-N-[2-(dimethylamino)-ethyl]-N-methyl-10,11-dihydro-5H-pyrrolo[2,1-c][1,4]benzodiazepine-3-carboxamide]
19 | – | – | 55 | CN(C)CCCN(C)C(=O)c1ccc2n1Cc1ccccc1N(C(=O)c1ccc(C3CCCCC3)cc1)C2 [Example 35, 10-(4-Cyclohexyl-benzoyl)-N-[3-(dimethylamino)propyl]N-methyl-10,11-dihydro-5H-pyrrolo[2,1-c][1,4]benzodiazepine-3-carboxamide]
20 | – | – | 13 | O=C(NCCCn1ccnc1)c1ccc2n1Cc1ccccc1N(C(=O)c1ccc(C3CCCCC3)cc1)C2 [Example 36, 10-(4-Cyclohexyl-benzoyl)-N-[3-(1H-imidazol-1-yl)propyl]-10,11-dihydro-5H-pyrrolo[2,1-c][1,4]benzodiazepine-3-carboxamide]
